# Data taken from patent US20230012936A1, “COMBINATION THERAPY USING GLUCAGON AND GLP-1 CO-AGONISTS FOR THE TREATMENT OF OBESITY” (MEDIMMUNE, LLC, priority 2019, published 2023).
# Like-named read-outs stand apart in the source and are kept apart here.
# Experiments:
# Assay type in all cases: in vivo, human
# [1] = test system: overweight/obese subjects with Type 2 Diabetes Mellitus (T2DM); experiment: Mixed-meal tolerance test (MMTT) plasma glucose AUC0-4 h, Phase 2a study
# Experimental: (§1) Subjects were admitted to the unit on Day −2 and on Day 27. On Day −1 and on Day 28, following a minimum 10 hour fast, a blood sample for glucose metabolism panel (glucose, insulin, C-peptide, glucagon, and active GLP-1) was taken immediately prior to the subject drinking a standardized mixed meal (t=“0 minutes”). The subject then consumed a can of Ensure Plus, which is a nutritional supplement containing the components of fat, carbohydrate, and protein that make up a standard mixed-meal tolerance test (MMTT). After the meal, timed, serial blood samples were obtained for measurement of glucose and parameters related to glucose metabolism (with no additional food intake during this time). The MMTT was performed on Day-1 and Day 28.
# (§2) Blood samples for the glucose metabolism panel were drawn at t=“0 minutes” (before meal) and at 15, 30, 45, 60, 90, 120, 180, and 240 minutes (±5 minutes) after consumption of the standardized meal. Additional sampling for glucagon, insulin, C-peptide, and glucose was taken at 6, 8, 12, and 24 hours (±30 minutes) post-administration (t=“0 minutes”) of the standardized meal on Day −1 and 28.
# (§3) The change and percent change from baseline (Day-1) to the end of the 28 days of treatment (Day 28) in glucose AUC0-4 h were determined as measured by the MMTT. In addition, the change from baseline (Day −1) to Day 28 in active GLP-1, glucagon, insulin, and C-peptide AUC0-4 h were also measured by MMTT.
# [2] = test system: overweight/obese subjects with Type 2 Diabetes Mellitus (T2DM); settings: for Change from baseline in percentage of CGM glucose readings within the hyperglycemic range, mean: glucose >180 mg/dL; for Change from baseline in percentage of CGM glucose readings within the euglycemic range, mean: glucose ≥70 and ≤180 mg/dL; for 7-Day CGM mean glucose, mean / 7-Day CGM mean glucose, median: post-hoc
# Excerpt: A continuous glucose monitoring (CGM) device was used to measure interstitial glucose levels during the study. Subjects wore the CGM sensor continuously up until the time of a sensor change (every 7 to 14 days). If a subject was unable to tolerate wearing the CGM sensor for the entire duration of the study, the sensor was to be removed; but the subject should have remained in the study with or without continued CGM.
# Subjects underwent continuous glucose monitoring (CGM) for a total of 28 days with sensor changes every 7 to 14 days. The changes in CGM glucose AUC0-24 h and mean glucose over 24 hours from baseline to the end of each dosing level on Days 7 (100 μg), 14 (200 μg), and 28 (300 μg) were measured. Variability in glucose levels was also assessed by measuring the changes in standard deviation (SD), coefficient of variation (CV), and mean amplitude of glucose excursion (MAGE) of CGM glucose values over 24 hours.
# Changes from baseline in the percentages of 24-hour CGM glucose readings that fell within the euglycemic, hyperglycemic, hypoglycemic, and clinically significant hypoglycemic ranges were assessed at the end of each dosing level.
# In addition, a post-hoc analysis of CGM mean glucose over 7 days was conducted to further evaluate the effect of cotadutide on glucose control at each dose level.
# [3] = test system: overweight/obese subjects with Type 2 Diabetes Mellitus (T2DM); experiment: Hemoglobin A1c (HbA1c), Phase 2a study
# Experimental: The change in hemoglobin A1c (glycated hemoglobin; HbA1c) from baseline to Day 28 was assessed.
# [4] = test system: overweight/obese subjects with Type 2 Diabetes Mellitus (T2DM); experiment: Pancreatic and incretin hormone profiles during the MMTT
# Experimental: as §1, §2, §3
# The changes in insulin and C-peptide AUC004h from baseline to Day 28 were assessed. At baseline, the mean insulin AUC0-4 h was higher in the cotadutide group compared with the placebo group (91.768 vs 78.472 hr·mU/L, respectively). There was no meaningful difference from baseline in LS mean insulin AUC0-4 h at Day 28 between the cotadutide and placebo groups (−0.08 and 2.78 hr·mU/L, respectively; LS mean difference: −2.86 hr·mU/L; p=0.7760). At baseline, the mean C-peptide AUC0-4 h was similar in the cotadutide and placebo groups (11.278 vs 10.605 hr. μg/L, respectively). There was no meaningful difference from baseline in LS mean C-peptide AUC0-4 h at Day 28 between the cotadutide and placebo groups (0.32 and −0.29 hr. μg/L, respectively (LS mean difference: […]; p=0.4345).
# [5] = Day 28, ITT, metformin and dapagliflozin background
# [6] = baseline to Day 28, vs placebo, ANCOVA
smiles,measurement,setting,value
CCCCCCCCCCCCCCCC(=O)N[C@@H](CCC(=O)NCCCC[C@H](NC(=O)[C@H](CC(=O)O)NC(=O)[C@H](CO)NC(=O)[C@@H](NC(=O)[C@H](Cc1ccccc1)NC(=O)[C@@H](NC(=O)CNC(=O)[C@H](CCC(N)=O)NC(=O)[C@H](CO)NC(=O)[C@@H](N)Cc1c[nH]cn1)[C@@H](C)O)[C@@H](C)O)C(=O)N[C@@H](CO)C(=O)N[C@@H](CCC(=O)O)C(=O)N[C@@H](Cc1ccc(O)cc1)C(=O)N[C@@H](CC(C)C)C(=O)N[C@@H](CC(=O)O)C(=O)N[C@@H](CO)C(=O)N[C@@H](CCC(=O)O)C(=O)N[C@@H](CCCNC(=N)N)C(=O)N[C@@H](C)C(=O)N[C@@H](CCCNC(=N)N)C(=O)N[C@@H](CC(=O)O)C(=O)N[C@@H](Cc1ccccc1)C(=O)N[C@H](C(=O)N[C@@H](C)C(=O)N[C@@H](Cc1c[nH]c2ccccc12)C(=O)N[C@@H](CC(C)C)C(=O)N[C@@H](CCC(=O)O)C(=O)N[C@@H](C)C(=O)NCC(=O)NCC(=O)O)C(C)C)C(=O)O [Cotadutide],"Plasma glucose AUC0-4 h after MMTT, Day 28, mean",[1]; [5],523.72 mg·h/dL
same,"Plasma glucose AUC0-4 h after MMTT, Day 28, median",[1]; [5],481.57 mg·h/dL
same,"Plasma glucose AUC0-4 h after MMTT, change from baseline, LS mean","[1]; baseline to Day 28, ANCOVA",-154.37 mg·h/dL
same,"Plasma glucose AUC0-4 h after MMTT, percent change from baseline, LS mean","[1]; baseline to Day 28, ANCOVA",−22.30%
same,"Plasma glucose AUC0-4 h after MMTT, change from baseline, mean","[1]; baseline to Day 28, ITT",-151.29 mg·h/dL
same,"Plasma glucose AUC0-4 h after MMTT, change from baseline, median","[1]; baseline to Day 28, ITT",-148.29 mg·h/dL
same,"Plasma glucose AUC0-4 h after MMTT, percent change from baseline, mean","[1]; baseline to Day 28, ITT",−22.03%
same,"Plasma glucose AUC0-4 h after MMTT, percent change from baseline, median","[1]; baseline to Day 28, ITT",−25.55%
same,"Plasma glucose AUC0-4 h after MMTT, change from baseline, LS mean difference",[1]; [6],-143.09 mg·h/dL
same,"Plasma glucose AUC0-4 h after MMTT, percent change from baseline, LS mean difference",[1]; [6],−22.17%
same,"Change from baseline in CGM mean glucose over 24 hours, mean",[2]; Day 7 (100 μg),-34.74 mg/dL
same,"Change from baseline in MAGE of CGM glucose, mean",[2]; Day 7 (100 μg),-25.74 mg/dL
same,"Change in CGM glucose AUC0-24 h from baseline, mean",[2]; Day 7 (100 μg),-832.66 mg·h/dL
same,"Change in CGM glucose AUC0-24 h from baseline, median",[2]; Day 7 (100 μg),-962.95 mg·h/dL
same,"Change in SD over 24 hours in CGM glucose from baseline, mean",[2]; Day 7 (100 μg),-7.21 mg/dL
same,"Change in SD over 24 hours in CGM glucose from baseline, median",[2]; Day 7 (100 μg),-11.16 mg/dL
same,"Change from baseline in percentage of CGM glucose readings within the hyperglycemic range, mean",[2]; Day 7,−13.99%
same,"Change from baseline in percentage of CGM glucose readings within the euglycemic range, mean",[2]; Day 7,7.12%
same,"Change from baseline in CGM mean glucose over 24 hours, mean",[2]; Day 14 (200 μg),-28.34 mg/dL
same,"Change from baseline in MAGE of CGM glucose, mean",[2]; Day 14 (200 μg),-26.59 mg/dL
same,"Change in CGM glucose AUC0-24 h from baseline, mean",[2]; Day 14 (200 μg),-666.05 mg·h/dL
same,"Change in CGM glucose AUC0-24 h from baseline, median",[2]; Day 14 (200 μg),-897.02 mg·h/dL
same,"Change in SD over 24 hours in CGM glucose from baseline, mean",[2]; Day 14 (200 μg),-7.52 mg/dL
same,"Change in SD over 24 hours in CGM glucose from baseline, median",[2]; Day 14 (200 μg),-8.36 mg/dL
same,"Change from baseline in percentage of CGM glucose readings within the hyperglycemic range, mean",[2]; Day 14,−9.81%
same,"Change from baseline in percentage of CGM glucose readings within the euglycemic range, mean",[2]; Day 14,5.31%
same,"Change in CGM glucose AUC0-24 h from baseline, mean",[2]; Day 28 (LOCF) (300 μg),-695.16 mg·h/dL
same,"Change in CGM glucose AUC0-24 h from baseline, median",[2]; Day 28 (LOCF) (300 μg),-928.48 mg·h/dL
same,"Change in SD over 24 hours in CGM glucose from baseline, mean",[2]; Day 28 (LOCF) (300 μg),-8.89 mg/dL
same,"Change in SD over 24 hours in CGM glucose from baseline, median",[2]; Day 28 (LOCF) (300 μg),-9.57 mg/dL
same,"Change in CGM glucose AUC0-24 h from baseline, LS mean","[2]; Day 28 (LOCF), ANCOVA",-658.64 mg·h/dL
same,"Change in SD over 24 hours in CGM glucose from baseline, LS mean","[2]; Day 28 (LOCF), ANCOVA",-9.73 mg/dL
same,"Change in SD over 24 hours in CGM glucose from baseline, LS mean difference","[2]; Day 28 (LOCF), vs placebo",-8.45 mg/dL
same,"Change in CGM glucose AUC0-24 h from baseline, LS mean difference","[2]; Day 28 (LOCF), vs placebo, ANCOVA",-806.61 mg·h/dL
same,"CV of CGM glucose over 24 hours, change from baseline, LS mean difference","[2]; Day 28, vs placebo",−2.41%
same,"Change from baseline in CGM mean glucose over 24 hours, LS mean difference","[2]; Day 28, vs placebo",-34.06 mg/dL
same,"Change from baseline in MAGE of CGM glucose, LS mean difference","[2]; Day 28, vs placebo",-24.83 mg/dL
same,"Change from baseline in percentage of CGM glucose readings within the euglycemic range, LS mean difference","[2]; Day 28, vs placebo",8.78%
same,"Change from baseline in percentage of CGM glucose readings within the hyperglycemic range, LS mean difference","[2]; Day 28, vs placebo",−12.83%
same,"7-Day CGM mean glucose, mean",[2]; Days 1 to 7 (100 μg dose),116.82 mg/dL
same,"7-Day CGM mean glucose, median",[2]; Days 1 to 7 (100 μg dose),111.40 mg/dL
same,"7-Day CGM mean glucose, mean",[2]; Days 8 to 14 (200 μg dose),118.78 mg/dL
same,"7-Day CGM mean glucose, median",[2]; Days 8 to 14 (200 μg dose),113.48 mg/dL
same,"7-Day CGM mean glucose, mean",[2]; Days 15 to 21 (300 μg dose),120.94 mg/dL
same,"7-Day CGM mean glucose, median",[2]; Days 15 to 21 (300 μg dose),106.17 mg/dL
same,"7-Day CGM mean glucose, mean",[2]; Days 22 to 28 (300 μg dose),115.61 mg/dL
same,"7-Day CGM mean glucose, median",[2]; Days 22 to 28 (300 μg dose),108.78 mg/dL
same,"Change from baseline in percentage of CGM glucose readings within the hypoglycemic range, LS mean difference",[2]; in vivo,3.35%
same,"Hemoglobin A1c, Day 28, mean","[3]; Day 28, ITT",6.75%
same,"Hemoglobin A1c, Day 28, median","[3]; Day 28, ITT",6.65%
same,"Hemoglobin A1c, change from baseline, mean",[3]; baseline to Day 28,−1.04%
same,"Hemoglobin A1c, change from baseline, median",[3]; baseline to Day 28,−1.10%
same,"Hemoglobin A1c, change from baseline, LS mean","[3]; baseline to Day 28, ANCOVA",−1.03%
same,"Hemoglobin A1c, change from baseline, LS mean difference","[3]; baseline to Day 28, vs placebo",−0.58%
same,"C-peptide AUC0-4 h, change from baseline, LS mean",[4]; Day 28,0.32 µg·h/L
same,"GLP-1 (active form) AUC0-4 h, change from baseline, LS mean",[4]; Day 28,-131.67 ng·h/L
same,"Glucagon AUC0-4 h, change from baseline, LS mean",[4]; Day 28,-12.52 ng·h/L
same,"Insulin AUC0-4 h, change from baseline, LS mean",[4]; Day 28,−0.08 hr·mU/L
same,"GLP-1 (active form) AUC0-4 h, change from baseline, LS mean difference","[4]; Day 28, vs placebo",-0.73 ng·h/L
same,"Glucagon AUC0-4 h, change from baseline, LS mean difference","[4]; Day 28, vs placebo",11.3 ng·h/L
same,"Insulin AUC0-4 h, change from baseline, LS mean difference","[4]; Day 28, vs placebo",−2.86 hr·mU/L
